Measurements taken from publication PMC7023466, “Novel N,N′-Disubstituted Acylselenoureas as Potential Antioxidant and Cytotoxic Agents” (Antioxidants, 2020).

Tests used:
MCF-7 cells = experiment: MTT cell viability assay, MCF-7; assay type: cell-based, human; conditions: Homo sapiens, MCF7, 48 h, read-out: Growth (%) MCF-7
Method: (§1) The cell viability assay of each compound was carried out using the MTT assay. Each compound was dissolved in dimethyl sulfoxide (DMSO) at a concentration of 0.01 M. Serial dilutions were prepared with a non-supplemented culture medium. The effect of each compound on the cell viability was determined at two different concentrations (10 and 50 µM) in MCF-7, HTB-54, and HT-29 cells. In addition, the selected compounds were tested at six different concentrations between 0.1–100 µM in MCF-7, T47D, H1299, HTB-54, and 184B5 cells.
(§2) Briefly, 1 × 10^4 tumor cells/well or 2 × 10^4 non-tumorigenic cells/well were grown in 96-well plates for 12 h. Then, these cells were incubated with either DMSO (control) or a different concentration of each of the tested compounds for 48 h. Three hours before the termination point, 20 µL of MTT were added to measure the cellular viability. The resultant formazan crystals were dissolved in 50 µL of DMSO, and the absorbance was measured at 570 and 630 nm. The results are expressed as IC50, the half maximal inhibitory concentration. This value was calculated using OriginPro 8.5.1. software (OriginLab, Northampton, MA, USA) by nonlinear curve fitting. Furthermore, the selectivity index (SI) was calculated as the ratio of the IC50 values determined for the non-malignant and the tumor cells (IC50 (184B5)/IC50 (MCF-7). The data were obtained from at least three independent experiments performed in quadruplicates.

HTB-54 cells = experiment: MTT cell viability assay, HTB-54; assay type: cell-based; conditions: Homo sapiens, HTB-54, 48 h, read-out: Growth (%) HTB-54
Method: as §1, §2

HT-29 cells = experiment: MTT cell viability assay, HT-29; assay type: cell-based; conditions: Homo sapiens, 48 h, read-out: Growth (%) HT-29
Method: as §1, §2

Compound	activity at 10 µM (MCF-7 cells) [%]	activity at 50 µM (MCF-7 cells) [%]	activity at 10 µM (HTB-54 cells) [%]	activity at 50 µM (HTB-54 cells) [%]	activity at 10 µM (HT-29 cells) [%]	activity at 50 µM (HT-29 cells) [%]
O=C(NC(=[Se])Nc1ccccc1)c1ccccc1 [Compound 1a]	70.5	6.6	67.8	57.1	56.9	23.4
Cc1ccc(NC(=[Se])NC(=O)c2ccccc2)cc1 [Compound 1b]	64.2	12.6	75.8	61.1	60.4	28
O=C(NC(=[Se])Nc1ccc(C(F)(F)F)cc1)c1ccccc1 [Compound 1d]	73.6	21.9	84.9	38.7	97.3	25.1
Cc1ccc(NC(=[Se])NC(=O)c2ccccc2Cl)cc1 [Compound 2b]	60.1	24.7	87.9	66.6	80.2	46.1
COc1ccc(NC(=[Se])NC(=O)c2ccccc2Cl)cc1 [Compound 2c]	62.6	26.4	84.9	66.7	76.3	44.8
O=C(NC(=[Se])Nc1ccc(C(F)(F)F)cc1)c1ccccc1Cl [Compound 2d]	94.2	10.4	100	37.6	87.1	51.7
O=C(NC(=[Se])Nc1ccc(Cl)cc1)c1ccccc1Cl [Compound 2e]	118	16	96.7	18.6	77.8	57.9
CSc1ccc(Cl)c(C(=O)NC(=[Se])Nc2ccccc2)c1 [Compound 3a]	84.1	23.1	88.8	49.9	71.1	42.7
COc1ccc(NC(=[Se])NC(=O)c2cc(SC)ccc2Cl)cc1 [Compound 3c]	73.9	23.7	79	27.6	67.9	44.4
CSc1ccc(Cl)c(C(=O)NC(=[Se])Nc2ccc(Cl)cc2)c1 [Compound 3e]	105	32.4	79.4	35.8	76.6	73
O=C(NC(=[Se])Nc1ccccc1)c1cccnc1Cl [Compound 4a]	68.8	29.3	83.1	67.6	99.1	34.1
Cc1ccc(NC(=[Se])NC(=O)c2cccnc2Cl)cc1 [Compound 4b]	77.6	32.4	87	64.8	99.2	51.7
COc1ccc(NC(=[Se])NC(=O)c2cccnc2Cl)cc1 [Compound 4c]	86.6	33	88.9	68.5	99.1	51.6
O=C(NC(=[Se])Nc1ccc(C(F)(F)F)cc1)c1cccnc1Cl [Compound 4d]	67.1	48.9	90.5	62.2	103	62.2
O=C(NC(=[Se])Nc1ccc(Cl)cc1)c1cccnc1Cl [Compound 4e]	90.6	60.2	92.1	63.5	93.4	67
O=C(NC(=[Se])Nc1ccccc1)c1cccs1 [Compound 5a]	70.3	27.4	76.8	43.7	73.5	39

Compound	activity at 10 µM (MCF-7 cells) [%]	activity at 50 µM (MCF-7 cells) [%]	activity at 10 µM (HTB-54 cells) [%]	activity at 50 µM (HTB-54 cells) [%]	activity at 10 µM (HT-29 cells) [%]	activity at 50 µM (HT-29 cells) [%]
Cc1ccc(NC(=[Se])NC(=O)c2cccs2)cc1 [Compound 5b]	64.2	17.5	66.8	66.7	82.8	36.8
COc1ccc(NC(=[Se])NC(=O)c2cccs2)cc1 [Compound 5c]	90.7	11.8	85	60.2	57.5	34.6
O=C(NC(=[Se])Nc1ccc(Cl)cc1)c1cccs1 [Compound 5e]	77.6	20.8	73.2	58.1	78.1	37.8
Cc1ccc(NC(=[Se])NC(=O)c2ccco2)cc1 [Compound 6b]	64.9	5.8	73	1.6	87.6	48.4
COc1ccc(NC(=[Se])NC(=O)c2ccco2)cc1 [Compound 6c]	70	13.1	74.2	3.8	74.5	35.9
O=C(NC(=[Se])Nc1ccc(C(F)(F)F)cc1)c1ccco1 [Compound 6d]	71.7	11.9	59.4	4.6	81.5	18.7
O=C(NC(=[Se])Nc1ccc(Cl)cc1)c1ccco1 [Compound 6e]	62.7	11.2	84.1	4	75.2	31.1
COc1ccc(NC(=[Se])NC(=O)C23CC4CC(CC(C4)C2)C3)cc1 [Compound 7c]	91.8	24.3	98.4	48.3	59.6	34
O=C(NC(=[Se])Nc1ccc(C(F)(F)F)cc1)C12CC3CC(CC(C3)C1)C2 [Compound 7d]	87.9	25.3	92.9	79.8	49.5	29.6
O=C(NC(=[Se])Nc1ccc(Cl)cc1)C12CC3CC(CC(C3)C1)C2 [Compound 7e]	83.9	39	111	36.4	53.5	45.9
O=C(/C=C/c1ccccc1)NC(=[Se])Nc1ccccc1 [Compound 8a]	75.8	15.3	65.2	49.7	98.6	34.2
O=C(C=Cc1ccccc1)NC(=[Se])Nc1ccc(C(F)(F)F)cc1 [Compound 8d]	91.1	18.5	90	41.1	76	37.3
O=C(C=Cc1ccccc1)NC(=[Se])Nc1ccc(Cl)cc1 [Compound 8e]	69.6	11.8	76.1	31.2	85.2	40.6
O=C(NC(=[Se])Nc1ccccc1)c1cc2ccccc2s1 [Compound 9a]	64.9	43.4	66.9	3.3	62	28.6
Cc1ccc(NC(=[Se])NC(=O)c2cc3ccccc3s2)cc1 [Compound 9b]	76.8	62.8	79	19	64.3	36.2
